Measured values reported in US10363239B2, “Method for inhibiting growth of cancer cells” (Pain Therapeutics, Inc., priority 2013, dated 2019).
Like-named read-outs stand apart in the source and are kept apart here.

Key:
[1] = test system: mu opiate receptor (MOR); assay: MOR agonist activity using [35S]GTPγS binding assay in striatal membranes; type: biochemical
Summary of the method: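 Striatal membranes (200 μg) were preincubated 5 min at 30 °C in HEPES pH 7.5 with 100 mM NaCl, 1 mM MgCl2 and 0.5 nM [35S]GTPγS, then 5 min more with 0.1–10 μM compound. Gαo was immunoprecipitated and bound radioactivity counted by scintillation.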

[2] = target: FLNA pentapeptide of SEQ ID NO: 1 (Bn-VAKGL) (Homo sapiens, UniProt P21333); assay: FITC-NLX-based FLNA screening assay (inhibition of FITC-naloxone binding to Bn-VAKGL on streptavidin plates); conditions: 10 nM FITC-NLX
[3] = Series B, 0.1 μM compound, relative to DAMGO
[4] = Series B, 0.1 μM compound, [35S]GTPγS binding to Gαo, striatal membranes
[5] = Series B, 1 μM compound + 1 μM β-FNA
[6] = Series B, 1 μM compound + β-FNA, relative to DAMGO + BFNA
[7] = Series B, 1 μM compound, relative to DAMGO
[8] = Series B, 1 μM compound, [35S]GTPγS binding to Gαo, striatal membranes
[9] = read-out: Percent Binding Inhibition, FLNA-binding compound 0.01 μM
[10] = read-out: Percent Binding Inhibition, FLNA-binding compound 0.1 μM
[11] = read-out: Percent Binding Inhibition, FLNA-binding compound 1 μM
[12] = Series C-2, 0.1 μM compound, relative to DAMGO
[13] = Series C-2, 0.1 μM compound, [35S]GTPγS binding to Gαo, striatal membranes
[14] = Series C-2, 1 μM compound + 1 μM β-FNA
[15] = Series C-2, 1 μM compound + β-FNA, relative to DAMGO + BFNA
[16] = Series C-2, 1 μM compound, relative to DAMGO
[17] = Series C-2, 1 μM compound, [35S]GTPγS binding to Gαo, striatal membranes
[18] = FLNA-binding compound 0.01 μM, read-out: Percent Binding Inhibition
[19] = FLNA-binding compound 0.1 μM, read-out: Percent Binding Inhibition
[20] = FLNA-binding compound 1 μM, read-out: Percent Binding Inhibition
[21] = Series C-1, 0.1 μM compound, relative to DAMGO
[22] = Series C-1, 0.1 μM compound, [35S]GTPγS binding to Gαo, striatal membranes
[23] = Series C-1, 1 μM compound + 1 μM β-FNA
[24] = Series C-1, 1 μM compound + β-FNA, relative to DAMGO + BFNA
[25] = Series C-1, 1 μM compound, relative to DAMGO
[26] = Series C-1, 1 μM compound, [35S]GTPγS binding to Gαo, striatal membranes

SMILES | % DAMGO (0.1 μM) [1, 3] | MOR agonist activity, percent [35S]GTPγS binding at the stated compound concentration [1, 4] | MOR agonist activity, percent [35S]GTPγS binding at the stated compound concentration [1, 5] | % DAMGO + BFNA [1, 6] | % DAMGO (1 μM) [1, 7] | MOR agonist activity, percent [35S]GTPγS binding at the stated compound concentration [1, 8] | inhibition at 0.01 µM [2, 9] | inhibition at 0.1 µM [2, 10] | inhibition at 1 µM [2, 11] | also measured
COCOc1ccc(CCC(=O)CC2c3c(cc4c(c3OC)OCO4)CC[N+]2(C)C)cc1 (stereo not drawn) [Compound B0040] | 93.2% | 146.0% | 55.3% | 169.6% | 105.1% | 243.3% | 40% | 53.1% | 57.1% | –
CC(=O)c1ccc(S(=O)(=O)N2CC(CN(C)C)OC23CCNCC3)cc1 (stereo not drawn) [Compound C0118M] | – | – | – | – | – | – | 56.6% | 61.4% | 62.4% | % DAMGO (0.1 μM) [1, 12]: 87.8%; MOR agonist activity, percent [35S]GTPγS binding at the stated compound concentration [1, 13]: 166.2%; MOR agonist activity, percent [35S]GTPγS binding at the stated compound concentration [1, 14]: 79.2%; % DAMGO + BFNA [1, 15]: 163.3%; % DAMGO (1 μM) [1, 16]: 105.4%; MOR agonist activity, percent [35S]GTPγS binding at the stated compound concentration [1, 17]: 261.5%
CCOc1ccc(C(=O)CC2c3c(cc4c(c3OC)OCO4)CC[N+]2(C)C)cc1F (stereo not drawn) [Compound B0020] | 30.1% | 51.6% | 24.9% | 47.8% | 68.0% | 181.6% | 38.1% | 45.5% | 50.6% | –
CC1CCC(C(C)C)C(OCC(O)CN2CC(C)OC(C)C2)C1 (stereo not drawn) [Compound A0032-1] | – | – | – | – | – | – | – | – | – | MOR agonist activity ([35S]GTPγS binding), FLNA-Binding Compound as Agonist 0.1 μM ([1]; 0.1 μM compound): 187.4%; % DAMGO (0.1 μM) ([1]; 0.1 μM compound relative to DAMGO): 95.5%; MOR agonist activity ([35S]GTPγS binding), FLNA-Binding Compound as Agonist 1 μM ([1]; 1 μM compound): 324.5%; MOR agonist activity ([35S]GTPγS binding), FLNA-Binding Compound as Agonist 1 μM + BFNA ([1]; 1 μM compound + 1 μM β-funaltrexamine): 224.5%; % DAMGO + BFNA ([1]; 1 μM compound + BFNA relative to DAMGO + BFNA): 303.8%; % DAMGO (1 μM) ([1]; 1 μM compound relative to DAMGO): 117.6%; inhibition at 0.01 µM [2, 18]: 35.6%; inhibition at 0.1 µM [2, 19]: 43.9%; inhibition at 1 µM [2, 20]: 50%
COc1ccc(S(=O)(=O)N2CCOC23CCN(S(=O)(=O)c2ccc(C(C)=O)cc2)CC3)cc1 [Compound C0047] | – | – | – | – | – | – | 30.8% | 35.2% | 41.4% | % DAMGO (0.1 μM) [1, 21]: 98.1%; Concentration of FLNA-Binding Compound as Agonist 0.1 μM [1, 22]: 142.2%; Concentration of FLNA-Binding Compound as Agonist 1 μM + BFNA [1, 23]: 80.1%; % DAMGO + BFNA [1, 24]: 182.0%; % DAMGO (1 μM) [1, 25]: 88.5%; Concentration of FLNA-Binding Compound as Agonist 1 μM [1, 26]: 206.1%
COc1ccc(S(=O)(=O)N2CCOC23CCN(C(C)C)CC3)cc1 [Compound C0133M] | – | – | – | – | – | – | – | – | – | % DAMGO (0.1 μM) [1, 12]: 83.2%; MOR agonist activity, percent [35S]GTPγS binding at the stated compound concentration [1, 13]: 139.4%; MOR agonist activity, percent [35S]GTPγS binding at the stated compound concentration [1, 14]: 72.4%; % DAMGO + BFNA [1, 15]: 152.4%; % DAMGO (1 μM) [1, 16]: 96.6%; MOR agonist activity, percent [35S]GTPγS binding at the stated compound concentration [1, 17]: 214.8%; inhibition at 0.01 µM [2, 18]: 47.8%; inhibition at 0.1 µM [2, 19]: 54.9%; inhibition at 1 µM [2, 20]: 58.5%
COc1ccc(CCC(=O)CC2c3c(cc4c(c3OC)OCO4)CC[N+]2(C)C)cc1OC (stereo not drawn) [Compound B0042] | 39.6% | 69.9% | 43.1% | 163.9% | 42.3% | 107.5% | 40.8% | 46.4% | 51.6% | –
O=C(c1ccc([N+](=O)[O-])cc1)N1CCC2(CC1)OCCN2C(=O)c1ccc([N+](=O)[O-])cc1 [Compound C0032] | – | – | – | – | – | – | 41.5% | 50.5% | 55.3% | % DAMGO (0.1 μM) [1, 21]: 92.8%; Concentration of FLNA-Binding Compound as Agonist 0.1 μM [1, 22]: 145.4%; Concentration of FLNA-Binding Compound as Agonist 1 μM + BFNA [1, 23]: 80.9%; % DAMGO + BFNA [1, 24]: 248.2%; % DAMGO (1 μM) [1, 25]: 87.3%; Concentration of FLNA-Binding Compound as Agonist 1 μM [1, 26]: 202.0%
COc1cccc(OC)c1C(=O)CC1c2c(cc3c(c2OC)OCO3)CC[N+]1(C)C (stereo not drawn) [Compound B0023] | 99.4% | 166.1% | 28.4% | 81.8% | 100.1% | 245.3% | 28.5% | 37.8% | 46.4% | –
